Measurements as given in patent US20220323406A1, “METHODS AND COMPOSITIONS FOR DIFFERENTIATING STEM CELLS” (Massachusetts Institute of Technology, priority 2019, published 2022).
Where a name gives a salt, the structure may show the parent alone.

Key:
[1] = system: ENR+CD organoids (ISC to Paneth cell differentiation); experiment: Primary screen: CCh-stimulated lysozyme secretion LYZ.S, 2.5-D 384-well ENR+CD organoid differentiation; format: cell-based, mouse; settings: primary screen
Source text: (§1) High-throughput screening.

[2] = system: ENR+CD organoids (ISC to Paneth cell differentiation); experiment: Primary screen: basal (non-stimulated) lysozyme secretion LYZ.NS, 2.5-D 384-well ENR+CD organoid differentiation; format: cell-based, mouse; settings: primary screen; for Z.LYZ.NS: standard z score
Source text: as §1

ENR+CD organoids = experiment: Primary screen: ATP (CellTiter-Glo 3D, CTG) cell number/viability, 2.5-D 384-well ENR+CD organoids; settings: primary screen; for Z.CTG: standard z score;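 on all read-outs here: compounds given at plating and again on day 3 over a 6-day differentiation from ENR+CV stem-cell-enriched precursors, ATP measured on day 6, plate median as control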

SMILES	Dose.FC.LYZ.S ([1]; dose 0.08 uM)	Dose.FC.LYZ.S ([1]; dose 0.40 uM)	Dose.FC.LYZ.S ([1]; dose 2.00 uM)	Dose.FC.LYZ.S ([1]; dose 10.00 uM)	Dose.FC.LYZ.NS ([2]; dose 0.08 uM)	Z.LYZ.NS (standard z score) ([2]; dose 0.08 uM)	Dose.FC.LYZ.NS ([2]; dose 0.40 uM)	Z.LYZ.NS (standard z score) ([2]; dose 0.40 uM)	Dose.FC.LYZ.NS ([2]; dose 2.00 uM)	Z.LYZ.NS (standard z score) ([2]; dose 2.00 uM)	Dose.FC.LYZ.NS ([2]; dose 10.00 uM)	Z.LYZ.NS (standard z score) ([2]; dose 10.00 uM)	Dose.FC.CTG (ENR+CD organoids; dose 0.08 uM)	Z.CTG (standard z score) (ENR+CD organoids; dose 0.08 uM)	Dose.FC.CTG (ENR+CD organoids; dose 0.40 uM)	Z.CTG (standard z score) (ENR+CD organoids; dose 0.40 uM)	Dose.FC.CTG (ENR+CD organoids; dose 2.00 uM)	Z.CTG (standard z score) (ENR+CD organoids; dose 2.00 uM)	Dose.FC.CTG (ENR+CD organoids; dose 10.00 uM)	Z.CTG (standard z score) (ENR+CD organoids; dose 10.00 uM)	other results
O=C(Oc1cc(S(=O)(=O)c2ccccc2)ccc1[N+](=O)[O-])c1ccc(Cl)cc1 [BTB06584]	0.222 log2 fold change	0.042 log2 fold change	0.039 log2 fold change	0.019 log2 fold change	0.091 log2 fold change	0.795	0.025 log2 fold change	0.214	0.024 log2 fold change	0.206	−0.031 log2 fold change	−0.268	0.275 log2 fold change	0.657	0.288 log2 fold change	0.688	−0.180 log2 fold change	−0.431	0.199 log2 fold change	0.475	
O=C(Nc1cccc(Nc2ncc(Br)c(NCCc3cnc[nH]3)n2)c1)N1CCCC1 [BX-912]	0.038 log2 fold change	0.042 log2 fold change	−0.161 log2 fold change	−0.272 log2 fold change	0.010 log2 fold change		0.017 log2 fold change		−0.089 log2 fold change		−0.196 log2 fold change		0.043 log2 fold change		0.054 log2 fold change		−0.246 log2 fold change		−0.397 log2 fold change		Z.LYZ.NS ([2]; dose 0.08 uM): 0.090; Z.LYZ.NS ([2]; dose 0.40 uM): 0.151; Z.LYZ.NS ([2]; dose 2.00 uM): −0.771; Z.LYZ.NS ([2]; dose 10.00 uM): −1.704; Z.CTG (ENR+CD organoids; dose 0.08 uM): 0.103; Z.CTG (ENR+CD organoids; dose 0.40 uM): 0.129; Z.CTG (ENR+CD organoids; dose 2.00 uM): −0.587; Z.CTG (ENR+CD organoids; dose 10.00 uM): −0.949
CNC(=O)[C@H](Cc1ccccc1)NC(=O)[C@H](CC(C)C)[C@H](CSc1cccs1)C(=O)NO [Batimastat (BB-94)]	0.053 log2 fold change	0.028 log2 fold change	0.056 log2 fold change	−0.107 log2 fold change	−0.003 log2 fold change	−0.025	0.005 log2 fold change	0.042	0.081 log2 fold change	0.707	−0.075 log2 fold change	−0.649	0.035 log2 fold change	0.084	−0.095 log2 fold change	−0.226	−0.049 log2 fold change	−0.117	−0.283 log2 fold change	−0.676	
Cc1c(-c2ccc(O)cc2)n(Cc2ccc(OCCN3CCCCCC3)cc2)c2ccc(O)cc12 [Bazedoxifene HCl]	0.096 log2 fold change	0.065 log2 fold change	−0.189 log2 fold change	−0.361 log2 fold change	0.159 log2 fold change	1.386	0.026 log2 fold change	0.229	−0.146 log2 fold change	−1.267	−0.280 log2 fold change	−2.442	0.422 log2 fold change		0.365 log2 fold change		−0.780 log2 fold change		−1.148 log2 fold change		
O=C(/C=C/c1cccc(S(=O)(=O)Nc2ccccc2)c1)NO [Belinostat (PXD101)]	−0.059 log2 fold change	0.042 log2 fold change	−0.264 log2 fold change	−0.327 log2 fold change	0.008 log2 fold change	0.067	0.129 log2 fold change	1.125	−0.173 log2 fold change	−1.510	−0.196 log2 fold change	−1.709	−0.227 log2 fold change	−0.543	−0.055 log2 fold change	−0.133	−0.782 log2 fold change	−1.868	−1.122 log2 fold change	−2.679	
